Measurements published in patent publication US20240368150A1 (Hoffmann-La Roche Inc., priority 2021, published 2024).
Like-named read-outs stand apart in the source and are kept apart here.

How the values were obtained:
primary human T-cells [1] = test: Proliferation assay after 5 days (CellTiter-Glo, CD3 stimulation; PBS counter screen); type: cell-based; settings: CD3 stimulation; for Emax / Emax proliferation (% activation): 5 days, normalized to reference compound A1 as stimulator control = 100%, DMSO neutral control; for Emax: read-out: Emax proliferation (% activation); for EC50: primary human T-cells, CellTiter-Glo after 5 days, EC50 of fitted sigmoidal curve, read-out: Tcell Proliferation CD3 EC50
Method in brief: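 Proliferation is measured 5 days post-treatment as ATP-dependent luminescence. Flags mark compounds that activated unstimulated cells or harmed viability.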

primary human T-cells [2] = tested on: primary human T-cells

Row | EC50 (primary human T-cells [2]) [nM] | SMILES | Emax (primary human T-cells [1]; Homo sapiens, T-cell, 120 h) [%] | EC50 (primary human T-cells [1]; Homo sapiens, T-cell, 120 h) [nM] | Emax proliferation (% activation) (primary human T-cells [1]) | EC50 (primary human T-cells [1]) [nM]
1 | 4370 | CN1CC(c2nc(-c3cc4c(cc3F)S(=O)(=O)C[C@H](N)C(=O)N4Cc3ccc(Cl)cc3)no2)CC(C)(C)C1 (stereo partly drawn) [Example 324, (3R)-3-amino-5-[(4-chlorophenyl)methyl]-8-fluoro-1,1-dioxo-7-[5-(1,5,5-trimethyl-3-piperidyl)-1,2,4-oxadiazol-3-yl]-2,3-dihydro-1λ^6,5-benzothiazepin-4-one] | 107 | 341 |  | 
2 | 455 | CN(C)Cc1nc(-c2cc3c(cc2F)S(=O)(=O)C[C@H](N)C(=O)N3Cc2ccc(Cl)cc2)no1 [Example 325, (3R)-3-amino-5-[(4-chlorophenyl)methyl]-7-[5-[(dimethylamino)methyl]-1,2,4-oxadiazol-3-yl]-8-fluoro-1,1-dioxo-2,3-dihydro-1λ^6,5-benzothiazepin-4-one] | 96 | 869 |  | 
3 | 703 | N[C@H]1CS(=O)(=O)c2cc(F)c(-c3noc(C(F)(F)C(F)(F)F)n3)cc2N(Cc2ccc(Cl)cc2)C1=O [Example 326, (3R)-3-amino-5-[(4-chlorophenyl)methyl]-8-fluoro-1,1-dioxo-7-[5-(1,1,2,2,2-pentafluoroethyl)-1,2,4-oxadiazol-3-yl]-2,3-dihydro-1λ^6,5-benzothiazepin-4-one] | 129 | 908 |  | 
4 | 2330 | C#CCOCCOCCOCCCC(C)(C)c1nc(-c2cc3c(cc2F)S(=O)(=O)C[C@H](N)C(=O)N3Cc2ccc(Cl)cc2)no1 [Example 327, (3R)-3-amino-5-[(4-chlorophenyl)methyl]-7-[5-[1,1-dimethyl-4-[2-(2-prop-2-ynoxyethoxy)ethoxy]butyl]-1,2,4-oxadiazol-3-yl]-8-fluoro-1,1-dioxo-2,3-dihydro-1λ^6,5-benzothiazepin-4-one] | 104 | 722 |  | 
5 | 1080 | CN(C)C(=O)c1nc(-c2cc3c(cc2F)S(=O)(=O)C[C@H](N)C(=O)N3Cc2ccc(OC(F)(F)F)cc2)no1 [Example 328, 3-[(3R)-3-amino-8-fluoro-1,1,4-trioxo-5-[[4-(trifluoromethoxy)phenyl]methyl]-2,3-dihydro-1λ^6,5-benzothiazepin-7-yl]-N,N-dimethyl-1,2,4-oxadiazole-5-carboxamide] | 120 | 1960 |  | 
6 | 198 | NC(c1nc(-c2cc3c(cc2F)S(=O)(=O)C[C@H](N)C(=O)N3Cc2ccc(OC(F)(F)F)cc2)no1)C(F)(F)F (stereo partly drawn) [Example 329, (3R)-3-amino-7-[5-(1-amino-2,2,2-trifluoro-ethyl)-1,2,4-oxadiazol-3-yl]-8-fluoro-1,1-dioxo-5-[[4-(trifluoromethoxy)phenyl]methyl]-2,3-dihydro-1λ^6,5-benzothiazepin-4-one] | 70 | 5330 |  | 
7 | 1830 | CC(C)(C)NC(=O)c1nc(-c2cc3c(cc2F)S(=O)(=O)C[C@H](N)C(=O)N3Cc2ccc(OC(F)(F)F)cc2)no1 [Example 330, 3-[(3R)-3-amino-8-fluoro-1,1,4-trioxo-5-[[4-(trifluoromethoxy)phenyl]methyl]-2,3-dihydro-1λ^6,5-benzothiazepin-7-yl]-N-tert-butyl-1,2,4-oxadiazole-5-carboxamide] | 132 | 291 |  | 
8 | 746 | N[C@H]1CS(=O)(=O)c2cc(F)c(-c3noc(C4(CO)CCCO4)n3)cc2N(Cc2ccc(OC(F)(F)F)cc2)C1=O (stereo partly drawn) [Example 332, (3R)-3-amino-8-fluoro-7-[5-[2-(hydroxymethyl)tetrahydrofuran-2-yl]-1,2,4-oxadiazol-3-yl]-1,1-dioxo-5-[[4-(trifluoromethoxy)phenyl]methyl]-2,3-dihydro-1λ^6,5-benzothiazepin-4-one] | 128 | 814 |  | 
9 | 714 | N[C@H]1CS(=O)(=O)c2cc(F)c(-c3noc(C4(N)COC4)n3)cc2N(Cc2ccc(OC(F)(F)F)cc2)C1=O [Example 333, (3R)-3-amino-7-[5-(3-aminooxetan-3-yl)-1,2,4-oxadiazol-3-yl]-8-fluoro-1,1-dioxo-5-[[4-(trifluoromethoxy)phenyl]methyl]-2,3-dihydro-1lambda6,5-benzothiazepin-4-one] | 94 | 1220 |  | 
10 | 239 | Cc1nnc(-c2nc(-c3cc4c(cc3F)S(=O)(=O)C[C@H](N)C(=O)N4Cc3ccc(OC(F)(F)F)cc3)no2)o1 [Example 334, (3R)-3-amino-8-fluoro-7-[5-(5-methyl-1,3,4-oxadiazol-2-yl)-1,2,4-oxadiazol-3-yl]-1,1-dioxo-5-[[4-(trifluoromethoxy)phenyl]methyl]-2,3-dihydro-1λ^6,5-benzothiazepin-4-one] | 80 | 345 |  | 
11 | 1580 | COC(F)(c1nc(-c2cc3c(cc2F)[S+]([O-])C[C@H](N)C(=O)N3Cc2ccc(Cl)cc2)no1)C(F)(F)F (stereo partly drawn) [Example 338, (3R)-3-amino-5-[(4-chlorophenyl)methyl]-8-fluoro-1-oxo-7-[5-(1,2,2,2-tetrafluoro-1-methoxy-ethyl)-1,2,4-oxadiazol-3-yl]-2,3-dihydro-1λ^4,5-benzothiazepin-4-one] | 137 | 282 |  | 
12 | 473 | N[C@H]1CS(=O)(=O)c2cc(F)c(-c3noc(C4(C(F)(F)F)CC4)n3)cc2N(Cc2ccc(OC(F)(F)F)cc2)C1=O [Example 344, (3R)-3-amino-8-fluoro-1,1-dioxo-5-[[4-(trifluoromethoxy)phenyl]methyl]-7-[5-[1-(trifluoromethyl)cyclopropyl]-1,2,4-oxadiazol-3-yl]-2,3-dihydro-1λ^6,5-benzothiazepin-4-one] | 120 | 69.7 |  | 
13 | 5720 | CC(C)Oc1ccc(CN2C(=O)[C@@H](N)CS(=O)(=O)c3cc(F)c(-c4noc(C5CN(C)CC(F)(F)C5)n4)cc32)nc1 (stereo partly drawn) [Example 346, (3R)-3-amino-7-[5-(5,5-difluoro-1-methyl-3-piperidyl)-1,2,4-oxadiazol-3-yl]-8-fluoro-5-[(5-isopropoxy-2-pyridyl)methyl]-1,1-dioxo-2,3-dihydro-1λ^6,5-benzothiazepin-4-one] | 100 | 5650 |  | 
14 | 3500 | CC(C)Oc1ccc(CN2C(=O)[C@@H](N)CS(=O)(=O)c3cc(F)c(-c4noc(C5CN(C)CC(F)(F)C5)n4)cc32)cn1 (stereo partly drawn) [Example 347, (3R)-3-amino-7-[5-(5,5-difluoro-1-methyl-3-piperidyl)-1,2,4-oxadiazol-3-yl]-8-fluoro-5-[(6-isopropoxy-3-pyridyl)methyl]-1,1-dioxo-2,3-dihydro-1λ^6,5-benzothiazepin-4-one] | 151 | 977 |  | 
15 | 1330 | COC(=O)N1CCC(c2nc(-c3cc4c(cc3F)S(=O)(=O)C[C@H](N)C(=O)N4Cc3ccc(OC(C)C)cc3)no2)C1 (some centres unmarked) [Example 349] | 124 | 399 |  | 
16 | 288 | COC(F)(c1nc(-c2cc3c(cc2F)S(=O)(=O)C[C@H](N)C(=O)N3Cc2ccccc2)no1)C(F)(F)F (stereo partly drawn) [Example 351, (3R)-3-amino-5-benzyl-8-fluoro-1,1-dioxo-7-[5-(1,2,2,2-tetrafluoro-1-methoxy-ethyl)-1,2,4-oxadiazol-3-yl]-2,3-dihydro-1λ^6,5-benzothiazepin-4-one] | 107 | 113 |  | 
17 | 5740 | CN(C)C(=O)c1nc(-c2cc3c(cc2F)S(=O)(=O)C[C@H](N)C(=O)N3Cc2ccc(OC(F)(F)C(F)F)cc2)no1 [Example 352, 3-[(3R)-3-amino-8-fluoro-1,1,4-trioxo-5-[[4-(1,1,2,2-tetrafluoroethoxy)phenyl]methyl]-2,3-dihydro-1λ^6,5-benzothiazepin-7-yl]-N,N-dimethyl-1,2,4-oxadiazole-5-carboxamide] | 100 | 768 |  | 
18 | 3250 | CC(C)(C)c1nc(-c2cc3c(cc2F)S(=O)(=O)C[C@H](N)C(=O)N3Cc2ccc(OCC3CCOCC3)cc2)no1 [Example 353, (3R)-3-amino-7-(5-tert-butyl-1,2,4-oxadiazol-3-yl)-8-fluoro-1,1-dioxo-5-[[4-(tetrahydropyran-4-ylmethoxy)phenyl]methyl]-2,3-dihydro-1λ^6,5-benzothiazepin-4-one] | 108 | 7240 |  | 

Row | SMILES | EC50 (primary human T-cells [2]) [nM] | Emax (primary human T-cells [1]; Homo sapiens, T-cell, 120 h) [%] | EC50 (primary human T-cells [1]; Homo sapiens, T-cell, 120 h) [nM] | Emax proliferation (% activation) (primary human T-cells [1]) | EC50 (primary human T-cells [1]) [nM]
19 | COC(=O)N1CC2CC(c3nc(-c4cc5c(cc4F)S(=O)(=O)C[C@H](N)C(=O)N5Cc4ccc(OC(F)(F)F)cc4)no3)(C2)C1 [Example 335, methyl 1-[3-[(3R)-3-amino-8-fluoro-1,1,4-trioxo-5-[[4-(trifluoromethoxy)phenyl]methyl]-2,3-dihydro-1λ^6,5-benzothiazepin-7-yl]-1,2,4-oxadiazol-5-yl]-3-azabicyclo[3.1.1]heptane-3-carboxylate] | 819 | 161 |  |  | 
20 | COC(=O)N1CC2CC(c3nc(-c4cc5c(cc4F)[S+]([O-])C[C@H](N)C(=O)N5Cc4ccc(OC(F)(F)F)cc4)no3)(C2)C1 (stereo partly drawn) [Example 336, methyl 1-[3-[(3R)-3-amino-8-fluoro-1,4-dioxo-5-[[4-(trifluoromethoxy)phenyl]methyl]-2,3-dihydro-1λ^4,5-benzothiazepin-7-yl]-1,2,4-oxadiazol-5-yl]-3-azabicyclo[3.1.1]heptane-3-carboxylate] | 7020 |  |  | 114 | 1100
21 | COC(=O)N1CC2CC(c3nc(-c4cc5c(cc4F)[S+]([O-])C[C@H](N)C(=O)N5Cc4ccc(OC(F)(F)F)cc4)no3)(C2)C1 (stereo partly drawn) [Example 337, methyl 1-[3-[(3R)-3-amino-8-fluoro-1,4-dioxo-5-[[4-(trifluoromethoxy)phenyl]methyl]-2,3-dihydro-1λ^4,5-benzothiazepin-7-yl]-1,2,4-oxadiazol-5-yl]-3-azabicyclo[3.1.1]heptane-3-carboxylate] | 5950 |  |  | 92 | 2270
